Measured values reported in the supplement of paper PMC10307832.

What was measured:
Assay in all cases: relative viability (nuclei count vs DMSO), 5 days (fraction); higher = more cells survive
Vemurafenib + Foretinib = compound: CCCS(=O)(=O)Nc1ccc(F)c(C(=O)c2c[nH]c3ncc(-c4ccc(Cl)cc4)cc23)c1F [Vemurafenib] + COc1cc2c(Oc3ccc(NC(=O)C4(C(=O)Nc5ccc(F)cc5)CC4)cc3F)ccnc2cc1OCCCN1CCOCC1 [Foretinib] (partner 0.25 µM)
Method in brief: (§1)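 Lung cancer cell lines were pin-tool dosed in 1536-well plates on the day after seeding, with either a lone drug or a fixed anchor-drug dose plus five library-drug doses (not always all listed) in √10 steps. Nuclei were counted on 4× images after 5 days. Relative viability is the ratio of treated-well to vehicle-well nuclei counts, with each value a median of duplicate plates.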

OSI-027 + Lapatinib = compound: COc1cccc2cc(-c3nc([C@H]4CC[C@H](C(=O)O)CC4)n4ncnc(N)c34)[nH]c12 [OSI-027] + CS(=O)(=O)CCNCc1ccc(-c2ccc3ncnc(Nc4ccc(OCc5cccc(F)c5)c(Cl)c4)c3c2)o1 [Lapatinib] (partner 2 µM)
Method in brief: as §1

Vemurafenib = compound: CCCS(=O)(=O)Nc1ccc(F)c(C(=O)c2c[nH]c3ncc(-c4ccc(Cl)cc4)cc23)c1F [Vemurafenib]
Method in brief: (§2)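 Vehicle-anchored 1536-well plates of lung cancer cell lines, held overnight at 37 °C, were pinned with five library-drug doses (not always all listed) spaced by √10. No medium change followed over the next 5 days, after which the cells were fixed, permeabilised and Hoechst-stained together and imaged at 4×. Nuclei were counted with MetaXpress, and viability is treated-well nuclei over vehicle-well nuclei, taken as a median across plates. Plates passed with control CV below 25% and at least one doubling.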

OSI-027 = compound: COc1cccc2cc(-c3nc([C@H]4CC[C@H](C(=O)O)CC4)n4ncnc(N)c34)[nH]c12 [OSI-027]
Method in brief: as §2

Cell Line	relative viability (Vemurafenib + Foretinib; first compound 0.03162 µM)	relative viability (Vemurafenib + Foretinib; first compound 0.1 µM)	relative viability (Vemurafenib + Foretinib; first compound 0.3162 µM)	relative viability (Vemurafenib + Foretinib; first compound 1 µM)	relative viability (OSI-027 + Lapatinib; first compound 0.01 µM)	relative viability (OSI-027 + Lapatinib; first compound 0.03162 µM)	relative viability (OSI-027 + Lapatinib; first compound 0.1 µM)	relative viability (OSI-027 + Lapatinib; first compound 0.3162 µM)	relative viability (OSI-027 + Lapatinib; first compound 1 µM)	relative viability (Vemurafenib; 0.03162 µM)	relative viability (Vemurafenib; 0.1 µM)	relative viability (Vemurafenib; 0.3162 µM)	relative viability (Vemurafenib; 1 µM)	relative viability (OSI-027; 0.01 µM)	relative viability (OSI-027; 0.03162 µM)	relative viability (OSI-027; 0.1 µM)	relative viability (OSI-027; 0.3162 µM)	relative viability (OSI-027; 0.5 µM, anchor plate)	relative viability (OSI-027; 1 µM)
NCI-H661	1.06	0.956	1.08	0.965	0.509	0.519	0.453	0.334	0.279	0.975	0.929	1.02	0.971	0.977	0.952	0.958	0.95	0.735	0.581
NCI-H727	0.883	0.768	1.31	0.969	0.906	0.875	0.692	0.666	0.577	1	0.802	1.2	0.908	0.849	0.884	0.893	0.769	0.624	0.712
NCI-H1651	0.647	0.742	0.88	0.789	0.842		0.728	0.725	0.371	0.919	0.998	0.887	0.966	0.96	0.828	0.977	0.901	0.71	0.723
NCI-H1355	0.922	0.924	1	1.03	1.13	0.957	0.873	0.561	0.363	0.933	0.908	0.925	0.96	0.985	0.985	0.898	0.823	0.451	0.444
NCI-H1793	0.789		0.709	0.922	0.619	0.65	0.559	0.264	0.26	0.836		0.775	0.867	0.902	0.976	0.781	0.579	0.284	0.295
NCI-H1666	0.99	0.87	0.993	0.925	0.521	0.709	0.554	0.33	0.27	0.946	0.902	1.1	0.926	0.99	0.986	0.98	0.88	0.863	0.666
NCI-H838	0.964	1.05		1.07	0.937	0.975	0.868	0.584	0.377	0.924	0.988		1.03	0.93	0.898	0.782	0.607	0.404	0.408
NCI-H1975	0.957	0.969	0.792	0.963	0.897	0.864	0.958	0.688	0.401	0.922	0.9	0.696	0.886	0.977	0.924	0.926	0.953	0.729	0.622
A-427	1.01	0.951	1.06	1.18	1.04	1.16	0.927	0.768	0.661	0.953	0.973	0.852	0.989	0.891	0.946	0.794	0.722	0.47	0.619
SK-LU-1	0.706	0.709	0.647	0.705	0.888	0.817	0.656	0.519	0.29	0.95	0.958	0.669	0.978	1.08	0.974	0.916	0.608	0.328	0.425
PC-3 [JPC-3]	0.911		1.05	1.13	0.452	0.454	0.412	0.327	0.298	0.972		0.971	1.18	1.01	0.993	1.03	0.918	0.745	0.698
NCI-H2023	0.881	0.811	1.09	0.742	0.735	0.663	0.567	0.393	0.18	0.915	0.863	0.908	0.957	0.952	0.855	0.819	0.566	0.429	0.377
LXF-289	0.968	0.931	1.07	1.07	0.99	0.885	0.926	0.9	0.74	0.967	0.95	1	1.06	1.02	0.971	1.04	0.981	0.817	0.881
EBC-1	0.108	0.0915	0.104	0.11	0.187	0.217	0.223	0.199	0.203	0.943	0.929	0.986	1.03	0.943	0.837	0.909	0.886		0.361
LOU-NH91	0.914			0.975	0.727	0.702	0.626	0.598	0.482	0.954	0.724		1.07	0.903	0.967	0.786	0.776	0.72	0.591
PC-14	0.882		0.876	0.942	0.3	0.306	0.293	0.255	0.179	0.94		0.864	1.01	1	1.04	0.965	0.979	0.815	0.765
Calu-6	0.841	0.855	0.885	0.757	1.06	1.06	0.953	0.829	0.621	0.932	0.956	0.849	0.974	1.12	0.954	1.03	0.907		0.731

Cell Line	relative viability (Vemurafenib + Foretinib; first compound 0.03162 µM)	relative viability (Vemurafenib + Foretinib; first compound 0.1 µM)	relative viability (Vemurafenib + Foretinib; first compound 0.3162 µM)	relative viability (Vemurafenib + Foretinib; first compound 1 µM)	relative viability (OSI-027 + Lapatinib; first compound 0.01 µM)	relative viability (OSI-027 + Lapatinib; first compound 0.03162 µM)	relative viability (OSI-027 + Lapatinib; first compound 0.1 µM)	relative viability (OSI-027 + Lapatinib; first compound 0.3162 µM)	relative viability (OSI-027 + Lapatinib; first compound 1 µM)	relative viability (Vemurafenib; 0.03162 µM)	relative viability (Vemurafenib; 0.1 µM)	relative viability (Vemurafenib; 0.3162 µM)	relative viability (Vemurafenib; 1 µM)	relative viability (OSI-027; 0.01 µM)	relative viability (OSI-027; 0.03162 µM)	relative viability (OSI-027; 0.1 µM)	relative viability (OSI-027; 0.3162 µM)	relative viability (OSI-027; 0.5 µM, anchor plate)	relative viability (OSI-027; 1 µM)
H3255	0.945		0.827	0.96	0.22	0.269	0.234	0.183	0.234	0.918		1.01	0.917	0.98	1.11	0.893	0.874	0.629	0.638
NCI-H650	1.01	0.983		0.879	0.838	0.883	0.516	0.707	0.39	0.882	0.965	0.413	0.628	0.862	0.999	0.732	0.701	0.532	0.403
NCI-H1563	0.859	0.976	0.93	0.935	0.846	1.05	0.745	0.757	0.775	0.989	0.905	0.967	0.988	0.979	0.955	0.953	0.854	0.769	0.75
NCI-H2170	0.907	0.858	1	1.02	0.268	0.283	0.257	0.27	0.254	0.92	0.674	0.936	0.964	0.941	0.881	0.959	0.797	0.716	0.654
HCC-366	0.988	0.922	1.01	1	1.25	1.1	1.16	0.764	0.148	1.01	0.969		1.09	1.05	0.962	1.08	1.05	0.911	0.803
EKVX	0.617		0.745	0.703	0.169	0.189	0.201	0.16	0.153	0.935		1.03	0.988	0.984	0.914	0.93	0.889	0.693	0.582
NCI-H1734	0.81	0.82	0.779	0.763	1.03	1.12	0.935	0.781	0.489	0.967	1.02	0.779	0.875	0.962	0.991	0.826	0.785	0.615	0.684
CAL-12T	1.15	0.828	1.33	1.09	0.648	0.589	0.499	0.375	0.418	0.961	0.892	1.01	0.935	0.99	0.988	0.944	0.857	0.702	0.528
NCI-H2347	0.662	0.91	0.843	0.811	0.983	0.921	0.885	0.806	0.516	0.939	1.02	0.791	0.924	0.979	1.07	0.904	0.772	0.376	0.516
SK-MES-1	0.91	0.461	0.879	0.795	0.481	0.435	0.371	0.316	0.253	0.969	0.727	0.932	0.973	1.04	0.967	0.922	0.78	0.605	0.35
NCI-H3122	0.992	0.957	1.02	1.07	1.09	1.1	1.14	1.05	0.808	1.03	0.979	1.03	1.12	1.03	1.02	1.08	0.959	1.03	0.704
NCI-H23	0.981	0.685	0.953	0.719	1.07	1.13	1.06	0.618	0.291	0.918	0.967	0.838	0.871	0.906	0.96	0.808	0.784	0.612	0.54
ABC-1	1.05	1.16	1.19	1.05	1.33	0.991	1.04	0.97	0.553	0.808	0.886	0.711	0.945	0.874	1.03	0.825	0.585	0.499	0.547
NCI-H2228	0.845	0.931	0.828	0.869	1.05	1.21	0.958		0.539	1.04	0.948	1.05	0.999	0.975	0.88	0.957	0.941	0.625	0.619
HCC-15	0.941	1.09		1.05	0.872	0.849	0.819	0.763	0.529	0.926	1.03	0.854	0.989	0.981	0.977	0.983	0.899	0.692	0.708
NCI-H358	0.638	0.494	0.886	0.858	0.444	0.475	0.394	0.389	0.309	0.865		1.12	1.11	1	0.842	1.03	1.01	0.79	0.538
NCI-H1299	1.05	1.06	1	1.09	1.02	1.04	1.04	1.01	0.645	1.01	0.98	0.895	0.991	1	0.995	1.02	1.06		0.825
